By pIC50 is commonly meant the negative decadic logarithm of the IC50, by convention in mol/L.

This test concerns the target T1, ASIC1a (Homo sapiens, UniProt P78348).
T1 sequence (P78348 1-528): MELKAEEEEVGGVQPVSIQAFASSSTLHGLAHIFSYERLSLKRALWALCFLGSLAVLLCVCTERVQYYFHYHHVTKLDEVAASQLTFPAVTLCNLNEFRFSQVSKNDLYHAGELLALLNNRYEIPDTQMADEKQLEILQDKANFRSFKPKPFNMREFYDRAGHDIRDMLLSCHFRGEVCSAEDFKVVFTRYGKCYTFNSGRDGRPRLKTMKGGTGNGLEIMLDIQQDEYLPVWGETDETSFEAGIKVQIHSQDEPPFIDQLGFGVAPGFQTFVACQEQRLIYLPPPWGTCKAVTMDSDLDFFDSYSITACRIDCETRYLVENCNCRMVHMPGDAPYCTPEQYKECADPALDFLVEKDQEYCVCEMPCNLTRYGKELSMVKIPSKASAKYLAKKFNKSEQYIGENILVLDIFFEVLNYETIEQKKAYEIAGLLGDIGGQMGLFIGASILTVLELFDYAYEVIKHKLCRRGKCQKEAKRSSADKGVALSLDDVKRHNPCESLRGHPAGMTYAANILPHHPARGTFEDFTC
The test can be described thus: Two-electrode voltage clamp of acid-induced currents in Xenopus laevis oocytes. Format: cell-based. Details: expressed in transfected cells; host or cells: Xenopus laevis oocytes, nuclear microinjection of an expression vector such as pCDNA3. The note with it: for inhibition at 50 µM: Xenopus oocytes, read-out: % inh. at 50 μM (Xo). As to the method:
Screening and Bioanalysis of ASIC Antagonists in Xenopus laevis oocytes
This example describes the in vitro assessment of the activity of the compounds of the present invention.
Two-electrode voltage clamp electrophysiological assays in Xenopus laevis oocytes expressing gated ion channels are performed as follows:
Oocytes are surgically removed from adult Xenopus laevis and treated for 2 h at room temperature with 1 mg/ml type I collagenase (Sigma) in Barth's solution under mild agitation. Selected oocytes at stage IV-V are defolliculated manually before nuclear microinjection of 2.5-5 ng of a suitable expression vector, such as pCDNA3, comprising the nucleotide sequence encoding a gated ion channel subunit protein. In such an experiment, the oocytes express homomultimeric proton-gated ion channels on their surface. In an alternate experiment, one, two, three or more vectors comprising the coding sequences for distinct gated ion channel subunits are co-injected in the oocyte nuclei. In the latter case, oocytes express heteromultimeric proton-gated ion channels. For example, ASIC2a and/or ASIC3 subunits in pcDNA3 vector are co-injected at a 1:1 cDNA ratio. After 2-4 days of expression at 19° C. in Barth's solution containing […] gentamicin and 1.8 mM CaCl2, gated ion channels are activated by applying an acidic solution (pH<7) and currents are recorded in a two electrode voltage-clamp configuration, using an OC-725B amplifier (Warner Instruments). Currents are acquired and digitized at 500 Hz on an Apple Imac G3 computer with an A/D NB-MIO-16XL interface (National Instruments) and recorded traces are post-filtered at 100 Hz in Axograph (Axon Instruments) (Neher, E. and Sakmann, B. (1976) Nature 260:799-802). Once impaled with the microelectrodes, oocytes are continuously superfused at 10-12 ml/min with a modified Ringer's solution containing 97 mM NaCl, 2 mM KCl, 1.8 mM CaCl2, and 10 mM HEPES brought to pH 7.4 with NaOH (Control Ringer). Test Ringer solution is prepared by replacing HEPES with MES and adjusting the pH to the desired acidic value. Compounds of the present invention are prepared in both the Control and Test Ringer solutions and applied to oocytes at room temperature through a computer-controlled switching valve system. Osmolarity of all solutions is adjusted to 235 mOsm with choline chloride. Similarly, recordings can also be acquired in an automated multichannel oocytes system as the OpusExpress™ (Molecular Devices, Sunnyvale, USA).
FIGS. 1A and 2A illustrate the inhibitory effects of Compounds 12 and 44 on acid-induced activation of recombinant homomeric hASIC1a channels. FIGS. 1A and 2A show the dose-dependent inhibition of the acid-induced hASIC1a currents recorded from Xenopus laevis oocytes using the two-electrode voltage clamp method (as described in this example) in the absence or presence of increasing concentration of the compounds.
(In general: Two-electrode voltage clamp is typically applied to oocytes expressing channels or transporters.)

pIC50: −log10 of the molar value. Read-outs that look alike come from different tables or passages of the source.

Consider `CCN1CCc2c(-c3ccccc3)cc(C#N)c(N)c2C1` [Compound 12, 8-Amino-2-ethyl-5-phenyl-1,2,3,4-tetrahydro-isoquinoline-7-carbonitrile], for which the inhibition at 50 µM is above 50%. In addition, the pIC50 (Xenopus laevis oocytes, three point dose-response, read-out: IC50, half maximal inhibition of the acid-evoked response in hASIC1a) is 5.23.
On to `CCN1CCc2c(-c3cc(Cl)ccc3OC)cc(C#N)c(N)c2C1` [Compound 44], for which the pIC50 is 5.07 and the inhibition at 50 µM was above 50%.

Source of the values: patent US20080004282A1, “Compositions and methods for modulating gated ion channels” (PainCeptor Pharma Corporation, priority 2006, published 2008).
